Test results taken from US12636284B2, “Compositions for use in the prevention and/or treatment of intellectual disability and neurodegenerative diseases in a subject with down syndrome” (UNIVERSITA' DEGLI STUDI DI ROMA “LA SAPIENZA”, priority 2021, dated 2026).

Experiments:
Type in all cases: in vivo, mouse
[1] = Glucose tolerance test (GTT) at end of treatment; conditions: Ts2Cje mice; sitagliptin 5 mM intranasal, 21 days; 6 h fasting, i.p. glucose 10%
Procedure: Finally, animals were sacrificed using cervical dislocation.
Furthermore, mice were measured at the beginning and at the end of the treatment to evaluate the length in centimeters (cm). For calculating the body mass surface, the DuBois equation was used: body surface area (m^2)=0.007184×weight ([…])×height ([…]). The body mass index was calculated as the ratio between weight and BSA (gr/m^2). At the end of the treatment, the glucose tolerance test (GTT) was carried out on the four experimental groups. After a fasting period of 6 hours, the animals' basal blood glucose was assessed with a small blood sample from the tail (T0). Subsequently, the same animals were treated with a glucose solution (10%, intraperitoneal injection) and blood glucose was measured with a glucometer (lineD ORO, Bioseven) after 30-60-90-120 minutes.

[2] = system: oxidative stress levels (3-NT, 4-HNE); test: Slot blot of oxidative stress markers 3-NT and 4-HNE in hippocampus
Procedure: The samples (250 μl per well) were loaded into the wells of the slot-blot apparatus and transferred to a nitrocellulose membrane. The membrane was blocked for 2 h with a 3% solution of bovine serum albumin in T-TBS, and incubated with a primary anti-HNE polyclonal antibody (1:3000; HNE, NOVUS, #NB100-63093) or anti-3-NT (1:1000; Sigma Aldrich, #SAB52000009), for 2 hours at room temperature. The membrane was washed with T-TBS and incubated with alkaline phosphatase conjugated anti-rabbit or anti-mouse secondary antibody (1:5000, Sigma Aldrich) for 1 hour at room temperature. […] Finally, the results obtained were analyzed using the ImageLab program (Bio-rad, Hercules, CA, USA).

[3] = system: gephyrin and GABAA-R; test: Immunofluorescence of gephyrin and GABAA-R co-localization in hippocampus CA3 and CA1; conditions: Ts2Cje mice, confocal microscopy
Procedure: Brains were placed in 4% paraformaldehyde for 24 hours. Brains were then fixed over the subsequent 48 hours in a 20% sucrose solution. Brain sections were then cut to a thickness of 15 μm using a cryostat (Leica System) and stored in an aqueous solution of PBS containing 0.02% NaN3 at 4° C. until use. Slices thus obtained were mounted on slides and were blocked and permeabilized by blocking solution (10% of normal goat serum and 0.2% Triton X-100 in TBS) for 2 hours.
The following day, the same slices were incubated with a mix of fluorescent secondary antibodies, to evaluate the co-localization of the two proteins, anti-mouse Alexa Fluor 488 nm for gephyrin and anti-rabbit Alexa Fluor 594 nm for GABA α2 (1:1500, Invitrogen, Carlsbad, California, CA, USA) for 2 hours at room temperature. The slices were then washed again and incubated with DAPI nuclear marker (1:10000, Invitrogen, Carlsbad, California, CA, USA). To subtract the non-specific background signal created by the secondary antibody, some sections were incubated only with the secondary antibody. Finally, the sample was sealed with a cover slip via fluorimount (Sigma-Aldrich, St Louis, MO, USA). The acquisition and analysis of brain sections was carried out using Leica TCS SP5× confocal microscopy and ImageJ analysis software.

[4] = system: GSK3b protein; test: Western blot of GSK3b activation (pS9/pT216) in hippocampus; conditions: brains (hippocampus) of Ts2Cje mice
Procedure: For the duration of the treatment, the mice were weighed weekly in order to assess any weight changes. After 21 days of treatment, the animals underwent a behavioral test to assess their memory and learning abilities. After the behavioral test, metabolic parameters such as blood glucose (both fasting and under the glycemic curve), body surface area (BSA) and body mass index (BMI) were assessed. Finally, animals were sacrificed using cervical dislocation. The brain and peripheral areas were isolated and collected in liquid nitrogen and subsequently stored at −80° C. until they were used for biochemical analyzes.
Total protein extracts were prepared from the frontal cortex for human autopsy samples and from the hippocampus for mouse samples, using RIPA solution (pH 7.4) containing TrisHCl (50 mM, pH 7.4), NaCl (150 mM), 1% NP-40, 0.25% sodium deoxycholate, ethylenediamine tetracetic acid (EDTA) (1 mM), and 0.1% sodium dodecyl sulfate (SDS). […] For the rest of the experiments, protein extracts were supplemented with cocktails of protease and phosphatase inhibitors (Sigma Aldrich, St Louis, MO, USA). Brain tissues were homogenized in the solution described above by sonication, and centrifuged at 14,000 rpm for 30 min at 4° C. The supernatant was used to determine total protein concentration by means of the bicinchoninic acid assay (BCA, Pierce, Rockford, IL). […]

SMILES: N[C@@H](CC(=O)N1CCn2c(nnc2C(F)(F)F)C1)Cc1cc(F)c(F)cc1F [sitagliptin, (R)-4-oxo-4-[3-(trifluoromethyl)-5,6-dihydro[1,2,4]triazole[4,3-a]pyrazin-7(8H)-yl]-1-(2,4,5-trifluorophenyl)butan-2-amine]
- changes in glucose metabolism indices (GTT) [1]: no phenotypic or morphometric changes or changes in glucose metabolism indices
- oxidative stress levels (3-NT, 4-HNE) [2]: reduction
- clusters of gephyrin and GABAA-R at the synaptic level [3]: reduction of the clusters of gephyrin and GABAA-R
- activation of the GSK3b protein [4]: increased activation
